Where two headings read alike, the source gives them in different places.
Tests used:
HBV replication [1] = experiment: HBV replication inhibition assay in HepDES19 cells (strand-preferential q-PCR); assay type: cell-based, Hepatitis B virus; conditions: Hepatitis B virus
Experimental: HBV replication assay. […] Cells were seeded into 6-well plates and incubated in DMEM/F12, 10% fetal bovine serum (FBS), 1% penicillin/streptomycin (P/S) with 1 μg/mL tetracycline. Tetracycline was withdrawn after 24 hours. The test compound was applied to duplicate wells 48 hours later in medium containing a final DMSO concentration of 1%, and medium containing the compound was refreshed daily for the following two days. Cells were harvested and non-encapsidated nucleic acids were digested with micrococcal nuclease (New England Biolabs). HBV DNA was purified from capsids using QIAamp Cador Pathogen Mini Kit (Qiagen) with proteinase K incubation overnight at 37° C. TaqMan PCR was performed for 40 cycles at an annealing temperature of 60° C.
Thirty-nine HID, HPD, flutimide, and related POH compounds (Structures shown in FIG. 3) were screened for their ability to inhibit HBV replication in HepDES19 cells. […] Inhibition was calculated as the amount of plus-polarity DNA relative to the DMSO treated controls.
Briefly, HepDES19 were seeded in 12-well plates at 2×10^5 cells per well in the absence of tetracycline. Test compound was applied to cells 48 hours after removal of tetracycline. […] HBV DNA was purified from capsids using a QIAamp pathogen minikit with proteinase K digestion extended to overnight at 37° C. TaqMan PCR was performed for 40 cycles with an annealing temperature of 60° C.

HSV-1 = HSV-1 replication inhibition assay in Vero cells; assay type: cell-based, herpes simplex virus 1; conditions: Human alphaherpesvirus 1, 24 h; 5 μM, Vero cells; read-out: HSV-1 suppression (log10 at 5 μM), class symbol
Experimental: Thirty-seven compounds were counter-screened for efficacy against HSV-1 to evaluate specificity of the inhibitors and to help determine if the efficacy against HBV replication may be due to an unsuspected indirect effect on the cells. Vero cells infected with HSV-1 at an MOI of 0.1 were treated with 5 μM of compound for 24 hours. Inhibition was calculated as log 10 suppression of plaque forming units compared with DMSO vehicle control.
Vero cells were maintained DMEM supplemented with 3% newborn calf serum, 3% bovine growth serum, 2 mM L-glutamine, and P/S. Test compounds were applied to the cells in the presence of 0.05% DMSO. The herpes simplex virus 1 (HSV-1) strain used for screening was a de-identified clinical isolate from the Saint Louis University Hospital passaged once in culture.
Compounds and virus were diluted in phosphate buffered saline (PBS) containing 2% newborn calf serum and 2 mM L-glutamine so that the final concentration of compound was 5 μM. The cells were incubated at 37° C. for 1 hour with the virus containing inoculum, then the inoculum was removed and the wells were washed once in PBS. Compound diluted to 5 μM in supplemented DMEM was added and cells were incubated at 37° C. for an additional 23 hours. The plates were then microscopically inspected for cytopathic effect (CPE) or toxicity and then frozen at −80° C. Virus titers for wells with limited CPE compared to DMSO vehicle-treated controls were then determined by plaque assay on Vero cells. Each experiment was repeated at least once.

[2] = test system: patient-derived RNAseH enzymes; experiment: Biochemical RNAseH assay with variant patient-derived RNAseH enzymes; design: species or system Hepatitis B virus; conditions: compounds at their respective IC50 values, four genotype D enzymes
Experimental: HBV has 8 genotypes differing in sequence by 8%. Genetic diversity in the RNAseH domain is about 6%, which is easily high enough to modulate viral sensitivity to RNAseH inhibitors. […] Twelve purified, patient-derived RNAseH enzymes (4 from each genotypes B, C and D) were tested with the compounds at their respective IC50 values in a biochemical RNAseH assay. […] Equivalent results were obtained for all 12 enzymes against compounds #1 and #46. Therefore, HBV's high genetic variation is unlikely to present a substantial barrier to drug development.

HBV RNaseH [3] = target: T1, HBV RNaseH (Hepatitis B virus genotype D subtype ayw, UniProt P03156); conditions: Table 3, compounds at 100, 60 and 20 μM; compounds 1-91 and 138-140 previously reported (Cai et al., 2014)
Target sequence in this assay (P03156 671-832): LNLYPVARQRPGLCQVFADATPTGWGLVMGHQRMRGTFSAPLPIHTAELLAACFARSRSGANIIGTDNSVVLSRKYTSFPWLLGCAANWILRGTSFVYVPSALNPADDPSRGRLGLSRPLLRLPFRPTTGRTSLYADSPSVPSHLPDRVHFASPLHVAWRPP
Experimental: RNaseH expression and purification. […] The enriched extracts were dialyzed into 50 mM HEPES pH 7.3, 300 mM NaCl, 20% glycerol, and 5 mM DTT and stored in liquid nitrogen.
Oligonucleotide-directed RNA cleavage assay. […] This mixture was incubated with test compounds in 50 mM Tris pH 8.0, 190 mM NaCl, 5 mM MgCl2, 3.5 mM DTT, 0.05% NP40, 6% glycerol, and 1% DMSO at 42° C. for 90 minutes. Cleavage products were resolved by denaturing polyacrylamide gel electrophoresis, detected by autoradiography, and quantified using ImageJ. Non-specific background values were determined from the incorrect oligonucleotide negative control lane and subtracted from all experimental values. IC50 values were then calculated with GraphPad Prism using three-parameter log(inhibitor) vs. response non-linear curve fitting with the curve minimum set to zero to reflect background subtraction.
The HBV RNaseH inhibition activity of the 16 previously untested compounds was examined using an oligonucleotide-directed cleavage assay. Compounds were incubated with the HBV RNaseH, a ^32P-labeled RNA substrate plus a complementary DNA oligonucleotide and compounds at 100, 60, and 20 μM and the amount of the RNA cleavage products was measured following resolution on an acrylamide gel.
Briefly, a ^32P-labeled RNA was combined with a DNA oligonucleotide and the RNA:DNA substrate was incubated in the presence of the RNaseH and test compounds in 50 mM tris pH 8.0, 190 mM NaCl, 5 mM MgCl2, 3.5 mM DTT, 0.05% NP40, 6% glycerol, and 1% DMSO at 42° C. for 90 minutes. The products were resolved by gel electrophoresis and detected by audioradioagraphy.

HBV RNaseH [4] = target: T1, HBV RNaseH; experiment: Molecular beacon RNaseH assay; conditions: for Inhibition of HBV RNaseH, Molecular Beacon cleavage assay: Table 3, 0 to 500 μM
Target sequence in this assay (P03156 671-832): as above
Experimental: In this assay, a hairpin DNA oligonucleotide labeled with fluorescein on one end and a quencher on the other is held in a linear conformation by annealing to a complementary RNA; cleavage of the RNA causes the DNA to fold into a hairpin, suppressing fluorescence (FIG. 8A).
The substrate is a hairpin DNA oligonucleotide with a 5′ fluorescein reporter and a 3′ black hole quencher annealed to a complementary RNA oligonucleotide. The reaction was initiated by adding 5 mM Mg^++, and fluorescence was monitored at 37° C. with a Synergy 4 96-well plate reader. Inhibition was qualitatively determined as a dose-dependent reduction in the rate of substrate degradation.

HBV replication [5] = experiment: Chou-Talalay synergy analysis with Lamivudine against HBV replication; conditions: CI <1.0 indicates synergy
Experimental: Chou-Talaly analysis yields a combination index (CI). CI values <1.0 indicate synergy, CIs of approximately 1.0 indicate additive interactions, and CI values >1.0 indicate antagonism. CI values are calculated at various efficacy levels (EC50, EC75, EC90, and EC95), and a weighted CI value favoring higher efficacy levels is also generated.

human RNaseH1 = target: T2, human RNaseH1 (Homo sapiens, UniProt O60930); experiment: Oligonucleotide-directed RNA cleavage assay, human RNaseH1; assay type: biochemical; conditions: Table 1, qualitative inhibition
T2 construct: made in house; host or cells: E. coli
T2 sequence (O60930 1-286): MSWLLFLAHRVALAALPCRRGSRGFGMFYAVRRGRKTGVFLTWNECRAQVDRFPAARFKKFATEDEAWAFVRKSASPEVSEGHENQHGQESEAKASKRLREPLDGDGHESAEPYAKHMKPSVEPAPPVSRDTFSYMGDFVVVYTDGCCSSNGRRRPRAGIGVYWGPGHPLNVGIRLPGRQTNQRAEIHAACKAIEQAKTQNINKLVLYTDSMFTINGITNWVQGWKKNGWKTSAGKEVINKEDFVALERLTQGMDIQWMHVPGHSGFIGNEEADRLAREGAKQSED
Excerpt: RNaseH expression and purification.
Oligonucleotide-directed RNA cleavage assay.

MTT cytotoxicity assay = assay type: cell-based; conditions: human; Table 2, HepDES19 cells
Experimental: MTT cytotoxicity assays. 1.0×10^4 HepDES19 cells per well were seeded in 96-well plates and incubated in DMEM with 10% FBS plus 1% P/S, 1% non-essential amino acids, and 1% glutamine. Compounds were diluted in medium to the indicated concentrations plus 1% DMSO and added to cells 24 hours after plating, with each concentration tested in triplicate. Medium containing the compound was refreshed daily for the next two days. Thiazolyl blue tetrazolium bromide (MTT, Sigma-Aldrich) was added to 0.25 mg/mL, the cultures were incubated for 60 minutes, metabolites were solubilized in acidic isopropanol, and absorbance was read at 570 nm.

[6] = MTS cytotoxicity assay (CellTiter 96); conditions: human
Experimental: (§1) HepDES19 cells were seeded at 1×10^4 cells per well in a 96 well plate in the absence of tetracycline. The test compounds were applied in triplicate to the cells 48 hours later and the cells were incubated for 72 hours. Cell viability was measured using the CellTiter 96 Aqueous Non-Radioactive Cell Proliferation Assay (Promega). [3-(4,5-dimethylthiazol-2-yl)-5-(3-carboxymethoxyphenyl)-2-(4-sulfophenyl)-2H-tetrazolium, inner salt] (MTS) and phenazine methosulfate (PMS) solution at 2 mg/mL MTS and 0.043 mg/mL PMS were added to the medium, the cells were incubated for two hours at 37° C., and absorbance was measured at 490 nm. […] Neutral red was added to the media at a final concentration of 40 μg/mL. Cells were washed with PBS and incubated with neutral red medium for two hours at 37° C. The neutral red medium was removed and the cells were washed with PBS. […] Lactate dehydrogenase (LDH) release was measured using the LDH-cytotoxicity colorimetric assay kit (BioVision). Cells were lysed with 1% Triton-X to provide the high control and DMSO vehicle treatment was the low control. Supernatants were collected and transferred to a fresh 96 well plate, and LDH reaction mixture containing the catalyst and dye solution was added. The reaction was incubated for 15-20 minutes at room temperature in a dark box and absorbance was measured at 490 nm. Percent cytotoxicity was calculated as [(test sample−low control)/([…])]×100.

HepDES19 cells = experiment: MTS cytotoxicity assay (CellTiter 96); conditions: CC50 by MTS assay over EC50
Experimental: as §1

[7] = Neutral red (NR) cytotoxicity assay; assay type: cell-based; conditions: human, HepDES19 cells, read-out: Toxicity in HepDES19, NR (CC50)
Experimental: (§2) To further evaluate potential cytotoxicity of these hits, the effect of the compounds was determined for the uptake of neutral red (NR) by the lysosomes and lactate dehydrogenase (LDH) release into the supernatant due to cell membrane permeability. […] Overall, the TI values in Table 3 and FIG. 4 indicate that cytotoxicity was not the cause of antiviral efficacy, although it may have contributed to the apparent efficacy for #84, 85, 90, and 91, which all have TI values below 5.

[8] = Lactate dehydrogenase (LDH) release cytotoxicity assay; assay type: cell-based; conditions: human, HepDES19 cells, read-out: Toxicity in HepDES19, LDH (CC50)
Experimental: as §2

HBV RNaseH [9] = target: T1, HBV RNaseH; experiment: Detection of capsid-associated RNA:DNA heteroduplexes by Southern analysis; assay type: cell-based; design: expressed in transfected cells; host or cells: HepDES19 (HepG2 with a stably transfected HBV genotype D genome); conditions: HepDES19 cells, seven days; #89 at 4×EC50 (10.4 μM), #138 at 30 μM
Experimental: RNA:DNA heteroduplexes migrate as double-stranded products, but degradation of the RNA strand with exogenous RNase causes the DNAs to migrate as single-stranded species. To test for accumulation of RNA:DNA heteroduplexes, HepDES19 cells replicating HBV were treated with 4×EC50 (10.4 μM) of compound #89 and 30 μM compound #138 (negative control). HBV cores were harvested after seven days of compound treatment. Capsid-associated nucleic acids were purified and split into two pools; one pool was treated with RNaseA and the other pool was mock treated.
HepDES19 cells were plated in 100 mm dishes without tetracycline and incubated for 72 hours in the absence of tetracycline before addition of compound #89 at 4×EC50 (10.4 μM) and the negative control compound #138 at 30 μM; compound-containing media was replaced every three days. HBV nucleic acids were purified seven days after compound addition. HBV core particles were isolated by sedimentation through a sucrose cushion as described (Tavis et al., 1998). Cores were treated overnight with proteinase K (0.5 mg/mL) and 1.5% SDS at 37° C. Nucleic acids were purified by phenol-chloroform extraction and ethanol precipitation. The nucleic acids were split into two pools. One pool was treated with RNaseA (1.5 μg/μL) at 37° C. for 30 minutes and the other was mock-treated. […]
Target sequence in this assay (P03156 whole entry): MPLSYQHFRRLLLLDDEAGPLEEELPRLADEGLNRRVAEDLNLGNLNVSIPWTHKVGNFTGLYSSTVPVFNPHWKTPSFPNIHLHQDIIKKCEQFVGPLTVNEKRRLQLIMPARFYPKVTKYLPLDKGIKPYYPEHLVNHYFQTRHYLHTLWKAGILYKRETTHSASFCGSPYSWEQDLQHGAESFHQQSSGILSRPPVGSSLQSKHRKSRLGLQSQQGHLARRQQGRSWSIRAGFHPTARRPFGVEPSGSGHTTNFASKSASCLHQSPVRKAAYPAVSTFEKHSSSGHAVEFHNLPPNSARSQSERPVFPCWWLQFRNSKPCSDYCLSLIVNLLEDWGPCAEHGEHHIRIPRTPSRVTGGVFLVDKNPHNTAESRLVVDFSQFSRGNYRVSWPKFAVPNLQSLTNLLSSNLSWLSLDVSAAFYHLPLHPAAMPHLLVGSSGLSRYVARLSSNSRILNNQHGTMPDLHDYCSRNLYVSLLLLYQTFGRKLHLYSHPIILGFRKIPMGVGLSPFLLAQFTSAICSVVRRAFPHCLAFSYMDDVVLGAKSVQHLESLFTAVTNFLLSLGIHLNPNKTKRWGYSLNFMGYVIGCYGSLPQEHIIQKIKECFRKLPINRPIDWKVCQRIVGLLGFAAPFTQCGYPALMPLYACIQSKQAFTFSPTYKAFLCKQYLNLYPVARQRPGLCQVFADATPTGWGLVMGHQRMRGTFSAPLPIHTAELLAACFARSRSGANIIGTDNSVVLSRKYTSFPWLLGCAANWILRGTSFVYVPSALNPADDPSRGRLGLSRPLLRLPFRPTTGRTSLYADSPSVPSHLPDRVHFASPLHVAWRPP

[10] = HepDES19, read-out: HBV replication inhibition (EC50, μm)

Compound	EC50 (HBV replication [1]; [10]) [µM]	log reduction at 5 µM (HSV-1)	inhibition of variant genotype D RNAseH enzymes [2]	Inhibition of HBV RNaseH, Oligonucleotide directed cleavage assay (HBV RNaseH [3])	inhibition in the molecular beacon assay (HBV RNaseH [4]; 2.1 μg purified HBV RNaseH)	Inhibition of HBV RNaseH, Molecular Beacon cleavage assay (HBV RNaseH [4])	weighted combination index (CI) with Lamivudine (HBV replication [5])	Human RNaseH1 (human RNaseH1)	EC50 (HBV replication [1]; Table 2, HepDES19 cells, read-out: EC50) [µM]	CC50 (MTT cytotoxicity assay) [µM]	CC50 at 72 h [6] [µM]	TI (therapeutic index, CC50(MTS)/EC50) (HepDES19 cells)	CC50 at 72 h [7] [µM]	CC50 at 72 h [8] [µM]	accumulation of RNA:DNA heteroduplexes (HBV RNaseH [9])
O=C1Cc2ccccc2C(=O)N1O [Compound 1, 2-hydroxyisoquinoline-1,3(2H,4H)-dione]	4.2 ± 1.4	< 1	about 50%	+ (Dose-dependent inhibition at ≤100 μM)	inhibited	+ (Dose-dependent inhibition at ≤500 μM)	0.70±0.1								
CC(C)c1ccc(O)c(=O)c(O)c1 [Compound 46, β-thujaplicinol, reference compound]			about 50%				0.44±0.3								
O=C(NCc1ccc(F)cc1)C1C(=O)N(O)C(=O)c2cc(Cl)ccc21 (stereo not drawn) [Compound 87]	4.5 ± 3.7	< 1		− (No inhibition detected at 100 μM)		− (No inhibition detected at 500 μM)		+++ (detectable inhibition at 10 μM)	1.6	37	37 ± 17	8.2	24 ± 1	52 ± 15	
COc1ccc2c(c1)C(=O)N(O)C(=O)C2C(=O)NCc1ccc(F)cc1 (stereo not drawn) [Compound 88]	2.5 ± 0.5	< 1		− (No inhibition detected at 100 μM)		− (No inhibition detected at 500 μM)		+++ (detectable inhibition at 10 μM)		40	40 ± 6	16	26 ± 2	57 ± 6	
COc1ccc(CNC(=O)C2C(=O)N(O)C(=O)c3cc([N+](=O)[O-])ccc32)cc1 (stereo not drawn) [Compound 89]	2.6 ± 0.8	< 1		− (No inhibition detected at 100 μM)		− (No inhibition detected at 500 μM)		++ (detectable inhibition at 20 μM)							caused RNA:DNA heteroduplexes to accumulate

— US20190070165A1, “N-HYDROXYISOQUINOLINEDIONE INHIBITORS OF HBV REPLICATION” (Saint Louis University, priority 2016, published 2019)
